Data published in patent publication US10329304B2, “Compounds and methods for inhibition of hedgehog signaling and phosphodiesterase” (Vanderbilt University, priority 2014, dated 2019).
Several values for one entry are separate records, joined by “and”; a condition that tells them apart may be missing. Equal entries are not always repeated. Where two headings read alike, the source gives them in different places.

Tests used:
[1] = system: Hedgehog signaling (Gli-Luc reporter); assay: Hh Gli-Luciferase reporter assay in Shh-Light2 cells; format: cell-based, mouse; conditions: Mus musculus, Shh Light2; for EC50: read-out: Shh Light2 Luc EC50
Outline: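 Shh-Light2 cells with stable Gli-luciferase were stimulated by Shh-conditioned medium (or 3 μM purmorphamine or 20 nM SAG), or transfected with Gli-2, PDE4D3 or DN-PDE4D3. Overnight compound incubation preceded Steady-Glo read-out, normalized to CellTiter-Glo.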

PDE4D2 = molecular target: T1, PDE4D2 (Homo sapiens, UniProt Q08499); assay: In vitro PDE assay; format: biochemical
T1 construct: purchased BPS Biosciences (San Diego, Calif.)
T1 sequence (Q08499 303-809): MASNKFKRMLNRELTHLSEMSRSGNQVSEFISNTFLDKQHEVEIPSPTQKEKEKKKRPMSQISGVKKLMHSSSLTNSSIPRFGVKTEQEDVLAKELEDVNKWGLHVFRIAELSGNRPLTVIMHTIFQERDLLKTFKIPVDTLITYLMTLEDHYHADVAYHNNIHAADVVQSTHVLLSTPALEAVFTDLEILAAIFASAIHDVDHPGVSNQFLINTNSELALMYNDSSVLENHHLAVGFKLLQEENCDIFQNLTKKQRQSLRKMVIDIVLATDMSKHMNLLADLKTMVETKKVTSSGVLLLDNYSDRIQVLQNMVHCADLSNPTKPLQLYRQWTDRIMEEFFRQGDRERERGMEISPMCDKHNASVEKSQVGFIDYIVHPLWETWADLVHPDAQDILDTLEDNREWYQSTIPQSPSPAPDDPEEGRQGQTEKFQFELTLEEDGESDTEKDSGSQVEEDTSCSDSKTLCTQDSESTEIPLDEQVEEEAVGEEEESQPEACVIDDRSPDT
Outline: (§1)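 Recombinant human PDE incubated 60 min at room temperature in duplicate with 100 nM FAM-cAMP in 10 mM Tris-HCl pH 7.4, 10 mM MgCl2, 0.05% Tween 20, 1% DMSO. FAM-AMP product captured by bead binding agent for 60 min, then fluorescence read at 485/528 nm.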

PDE4D3 = molecular target: T2, PDE4D3 (Homo sapiens, UniProt Q08499); assay: In vitro PDE assay; format: biochemical
T2 construct: purchased BPS Biosciences (San Diego, Calif.); kinetic studies by Millipore (St. Louis, Mo.)
T2 sequence (Q08499 1-673 isoform Q08499-2): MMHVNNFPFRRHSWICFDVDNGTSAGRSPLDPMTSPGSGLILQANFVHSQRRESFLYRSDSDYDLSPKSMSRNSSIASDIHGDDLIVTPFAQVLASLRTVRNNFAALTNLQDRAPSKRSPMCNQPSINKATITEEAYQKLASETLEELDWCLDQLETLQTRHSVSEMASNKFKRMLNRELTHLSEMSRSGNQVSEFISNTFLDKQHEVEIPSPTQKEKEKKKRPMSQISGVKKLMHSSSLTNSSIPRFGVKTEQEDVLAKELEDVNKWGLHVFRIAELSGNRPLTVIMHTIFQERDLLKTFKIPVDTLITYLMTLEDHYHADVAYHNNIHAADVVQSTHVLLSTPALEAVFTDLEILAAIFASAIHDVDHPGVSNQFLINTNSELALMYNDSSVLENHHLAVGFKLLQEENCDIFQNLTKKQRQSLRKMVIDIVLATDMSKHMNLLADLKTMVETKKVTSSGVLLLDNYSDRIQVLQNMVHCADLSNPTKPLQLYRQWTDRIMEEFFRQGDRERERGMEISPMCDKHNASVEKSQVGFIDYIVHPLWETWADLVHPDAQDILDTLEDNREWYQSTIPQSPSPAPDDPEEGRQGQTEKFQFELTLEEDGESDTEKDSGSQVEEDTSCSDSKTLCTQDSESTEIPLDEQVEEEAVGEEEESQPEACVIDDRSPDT
Outline: as §1

B16F11 = assay: Cell viability assay (CellTiter-Blue, 72 hr); format: cell-based, Mouse; conditions: Mus musculus, B16-F10; Table 10; read-out: CELL KILLING EC50 (μM) Melanoma B16F10
Method: (§2) Cancer cell lines were seeded in 96 well tissue culture plate at a low density (10,000 cells per well) and treated with varying concentrations of Eggmanone. After 72 hr incubation, CellTiter-Blue Cell Viability Assay (Promega, Madison, Wis.) was then performed according to manufacturer's protocol. Absorbance was then measured in a Modulus Microplate reader (Promega, Madison, Wis.) at 590 nm and compared to cells treated with DMSO.
as §2, with “density” for “density (10,000 cells per well)”, “compounds identified in Table 7.” for “Eggmanone.”

DU145 = assay: Cell viability assay (CellTiter-Blue, 72 hr); format: cell-based, Human; conditions: DU-145; human cancer cells; read-out: CELL KILLING EC50 (μM) Prostate DU145
Method: as §2
as §2, with “density” for “density (10,000 cells per well)”, “compounds identified in Table 7.” for “Eggmanone.”

DaoY = assay: Cell viability assay (CellTiter-Blue, 72 hr); format: cell-based, Human; conditions: Daoy; human cancer cells; read-out: CELL KILLING EC50 (μM) Medulloblastoma DaoY
Method: as §2
as §2, with “density” for “density (10,000 cells per well)”, “compounds identified in Table 7.” for “Eggmanone.”

HCT116 = assay: Cell viability assay (CellTiter-Blue, 72 hr); format: cell-based, Human; conditions: HCT-116; human cancer cells; read-out: CELL KILLING EC50 (μM) Colon HTC116
Method: as §2
as §2, with “density” for “density (10,000 cells per well)”, “compounds identified in Table 7.” for “Eggmanone.”

HeLa = assay: Cell viability assay (CellTiter-Blue, 72 hr); format: cell-based, Human; conditions: human cancer cells, read-out: CELL KILLING EC50 (μM) Cervix HeLa
Method: as §2
as §2, with “density” for “density (10,000 cells per well)”, “compounds identified in Table 7.” for “Eggmanone.”

MDA-MB- 231 = assay: Cell viability assay (CellTiter-Blue, 72 hr); format: cell-based, Human; conditions: MDA-MB-231; human cancer cells; read-out: CELL KILLING EC50 (μM) Breast MDA-231
Method: as §2
as §2, with “density” for “density (10,000 cells per well)”, “compounds identified in Table 7.” for “Eggmanone.”

RKO = assay: Cell viability assay (CellTiter-Blue, 72 hr); format: cell-based, Human; conditions: for EC50: RKO
Method: as §2
as §2, with “density” for “density (10,000 cells per well)”, “compounds identified in Table 7.” for “Eggmanone.”

RWGT2 = assay: Cell viability assay (CellTiter-Blue, 72 hr); format: cell-based, Human; conditions: human cancer cells; read-out: CELL KILLING EC50 (μM) Lung Squam, NSCLC RWGT2
Method: as §2
as §2, with “density” for “density (10,000 cells per well)”, “compounds identified in Table 7.” for “Eggmanone.”

SW480 = assay: Cell viability assay (CellTiter-Blue, 72 hr); format: cell-based, Human
Method: as §2
as §2, with “density” for “density (10,000 cells per well)”, “compounds identified in Table 7.” for “Eggmanone.”

MCF7 = assay: Cell viability assay (CellTiter-Blue, 72 hr); format: cell-based; conditions: human cancer cells; for EC50: MCF7, read-out: CELL KILLING EC50 (μM) Breast MCF7
Method: as §2
as §2, with “density” for “density (10,000 cells per well)”, “compounds identified in Table 7.” for “Eggmanone.”

PC3 = assay: Cell viability assay (CellTiter-Blue, 72 hr); format: cell-based; conditions: PC-3; human cancer cells; read-out: CELL KILLING EC50 (μM) Prostate PCx3
Method: as §2

H82 = assay: Cell killing EC50 in H82 lung cancer cells (Table 10); format: cell-based; conditions: human cancer cells
Method: It is anticipated that compounds disclosed herein could serve as an anti-tumor, anti-angiogenic, anti-metastatic, agent in the treatment of cancer. To this end, a series of clinically relevant cancer lines were assayed and the cell-killing EC50s for compounds according to the subject matter disclosed herein are provided in Table 10.

PDE4D = PDE4D (Homo sapiens, UniProt Q08499); assay: PDE4 inhibition assay (PDE4D IC50); format: biochemical; conditions: read-out: PDE4D IC50
Chain of PDE4D (Q08499 1-673 isoform Q08499-2): as above
Method: In vitro PDE profiling and dose-response assays were performed by BPS Biosciences (San Diego, Calif.). Kinetic Mechanism of inhibition studies were conducted by Millipore (St. Louis, Mo.). In brief, the PDE assay measures fluorescent polarization of FAM-AMP as FAM-cAMP is converted to FAM-AMP by PDE), the binding agent.
A series of dilutions of the test compound were prepared with 10% DMSO in assay buffer and 5 μl of the dilution was added to a 50 μl reaction so that the final concentration of DMSO is 1% in all of reactions. All of the PDE enzymatic reactions were conducted in duplicate at room temperature for 60 minutes in a 50 μl mixture containing PDE assay buffer (10 mM Tris-HCl, pH7.4, 10 mM MaCl2, 0.05% Tween 20), 100 nM FAM-cAMP, a PDE enzyme and a test compound.
After the enzymatic reaction, 100 μl of a binding solution (1:100 dilution of the binding agent, which contains the nano beads that recognize FAM-AMP, with the binding agent diluent) was added to each reaction and the reaction was performed at room temperature for 60 minutes. Fluorescence intensity was measured at an excitation of 485 nm and an emission of 528 nm using a Tecan Infinite M1000 microplate reader. Assays done by Millipore were conducted similarly with changes noted below:
Hedgehog signaling inhibition and PDE4 inhibition of various compounds disclosed herein was assayed as described herein above.

[2] = human cancer cells, read-out: CELL KILLING EC50 (μM) Colon RKO
[3] = SW480, human cancer cells, read-out: CELL KILLING EC50 (μM) Colon SW480

SMILES | EC50 ([1]; Table 9A) | IC50 (PDE4D2; Table 9A) | IC50 (PDE4D3; Table 9A) | EC50 (B16F11) | EC50 (DU145) | EC50 (DaoY) | EC50 (HCT116) | EC50 (HeLa) | EC50 (MDA-MB- 231) | EC50 (RKO; [2]) | EC50 (RWGT2) | EC50 (SW480; [3]) | EC50 (MCF7) | EC50 (PC3) | CELL KILLING EC50 (μM) Lung H82 (H82) | CELL KILLING EC50 (μM) Breast MCF7 (MCF7) | other results
C=C(C)Cn1c(SCC(=O)N2Cc3ccccc3C2)nc2sc3c(c2c1=O)CCCC3 [Formula 1KMT] | > 20 µM | 46 µM | 30 µM | 61.7 µM | 32.4 µM | 58.2 µM | 89.2 µM | 49.7 µM | 68.3 µM | 75.6 µM | 51.1 µM | 4.89 µM | 1.08 µM | 74 µM | UnCh |  | 
C=CCn1c(SCC(=O)N2CCN(C)CC2)nc2sc3c(c2c1=O)CCCC3 [Formula 1KN7] | 5 to 10 µM | 1.7 µM | 1.8 µM | 25.8 µM | 91.4 µM | 58.6 µM | 21.3 µM | 27.5 µM | 10.3 µM | 8.39 µM | 28.4 µM | 0.0574 µM |  | 45.7 µM | UnCh | UnCh | IC50 [1]: 10 µM; IC50 (PDE4D): 2.1 µM and 2.08 µM; EC50 (RKO; 72 h, read-out: EC50 (50% reduction of viable cell count at 72 hours), Human Colon Carcinoma): 8.39 µM; EC50 (SW480; 72 h, read-out: EC50 (50% reduction of viable cell count at 72 hours), SW480, Human Colorectal Adenocarcinoma): 0.057 µM
C=C(C)Cn1c(SCC(=O)c2ccc(-c3ccccc3)cc2)nc2sc3c(c2c1=O)CCCC3 [Formula 1KXQ] | > 20 µM | > 100 µM | > 100 µM | 28.7 µM | 0.029 µM | 46.8 µM | 12 µM | 12.2 µM | > 100 µM |  | 80.9 µM | 44 µM |  | 41.1 µM | UnCh | UnCh | CELL KILLING EC50 (μM) Colon RKO (RKO; human cancer cells): UnCh
C=CCn1c(SCC(=O)c2ccccc2)nc2scc(-c3ccccc3)c2c1=O [HI696] |  |  |  | 0.0066 µM | > 100 µM | 2.95 µM | 3.2 µM | 3.75 µM | 1.2 µM | > 100 µM | 64.9 µM | 2.6 µM | > 100 µM | > 100 µM |  |  | EC50 ([1]; Table 9B): < 1 µM; IC50 (PDE4D2; Table 9B): 7.4 µM; IC50 (PDE4D3; Table 9B): 14 µM; EC50 (H82; NCI-H82): > 100 µM
